ChEMBL document CHEMBL5321200, “Discovery of the GSH responsive "Y-PROTACs" targeting ALK and CDK4/6 as a potential treatment for cancer” (Eur J Med Chem, 2023)
The source made the active and inactive calls. The rule behind the calls is not given here.

What was measured:
[1] = biological target: Cyclin-dependent kinase 4 (Homo sapiens) (UniProt P11802); experiment: Inhibition of CDK4 (unknown origin) at 0.05 uM by LANCE Ultra TR-FRET assay relative to control
NCI-H3122 = experiment: Antitumor activity against human NCI-H3122 cells xenografted in BALB/c nude mouse assessed as reduction in tumor volume at 75 mg/kg, IG administered once daily for 18 days and measured after 12 hrs of last dose; type: functional, organism-based; conditions: time 444.0 hrs
[2] = biological target: T1, Protein cereblon/Cyclin-dependent kinase 4 (Homo sapiens, UniProt P11802+Q96SW2); experiment: PROTAC activity at CRBN/CDK4 in human NCI-H2228 cells assessed as reduction in CDK4 protein level by Western blot analysis; type: cell-based
[3] = Stability of the compound in PBS buffer assessed as cleavage half life in presence of GSH by LC-MS/MS analysis; type: physicochemical; conditions: PBS buffer with GSH
Mus musculus = experiment: In vivo PROTAC activity at CRBN/EML4-ALK in BALB/c nude mouse xenografted with human NCI-H3122 cells assessed as reduction in EML4-ALK protein expression in tumor at 75 mg/kg, IG administered once daily for 18 days and measured after 12 hrs of last dose by immunohistochemical analysis; type: functional, organism-based; conditions: time 444.0 hrs
[4] = biological target: T1, Protein cereblon/Cyclin-dependent kinase 4; experiment: PROTAC activity at CRBN/CDK4 in human L02 cells assessed as reduction in CDK4 protein level at 1 to 20 uM incubated for 24 hrs by Western blot analysis; type: cell-based; conditions: dose 1-20 µM
[5] = biological target: Protein cereblon/ALK tyrosine kinase receptor (Homo sapiens) (UniProt Q9UM73+Q96SW2); experiment: PROTAC activity at CRBN/ALK in human NCI-H3122 cells assessed as degradation of ALK protein at 5 uM pretreated with ceritinib for 4 hrs followed by compound addition and measured after 24 hrs by Western blot analysis; type: cell-based
[6] = Cytotoxicity against human L02 cells assessed as inhibition of cell growth pretreated with GSH followed by compound addition and incubated for 3 to 5 days by MTT assay; type: toxicity, cell-based

T1 sequence (P11802 2-303 limits assumed): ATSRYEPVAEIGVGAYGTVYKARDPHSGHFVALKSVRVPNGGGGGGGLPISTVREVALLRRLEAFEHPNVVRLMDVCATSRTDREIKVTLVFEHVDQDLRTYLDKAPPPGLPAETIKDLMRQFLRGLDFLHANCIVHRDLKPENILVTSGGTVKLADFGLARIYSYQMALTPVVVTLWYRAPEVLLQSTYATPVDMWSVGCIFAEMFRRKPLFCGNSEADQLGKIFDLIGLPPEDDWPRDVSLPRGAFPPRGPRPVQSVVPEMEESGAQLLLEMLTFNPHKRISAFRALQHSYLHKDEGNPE
T1 sequence (Q96SW2 whole entry partner): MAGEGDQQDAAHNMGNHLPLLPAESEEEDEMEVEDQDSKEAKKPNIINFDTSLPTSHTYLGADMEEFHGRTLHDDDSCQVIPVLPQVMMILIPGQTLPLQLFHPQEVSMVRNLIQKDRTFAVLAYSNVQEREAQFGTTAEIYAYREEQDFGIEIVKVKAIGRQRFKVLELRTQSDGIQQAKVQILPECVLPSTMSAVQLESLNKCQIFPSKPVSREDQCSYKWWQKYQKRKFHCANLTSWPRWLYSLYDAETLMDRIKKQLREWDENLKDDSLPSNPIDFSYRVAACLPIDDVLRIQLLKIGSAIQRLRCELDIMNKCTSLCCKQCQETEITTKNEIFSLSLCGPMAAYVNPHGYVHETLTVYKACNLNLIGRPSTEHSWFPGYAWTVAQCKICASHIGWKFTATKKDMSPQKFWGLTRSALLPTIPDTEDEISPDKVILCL
Sequence of Protein cereblon/ALK tyrosine kinase receptor (Homo sapiens) (Q96SW2 whole entry partner): as above
Sequence of Protein cereblon/ALK tyrosine kinase receptor (Homo sapiens) (Q9UM73 19-1620 limits assumed): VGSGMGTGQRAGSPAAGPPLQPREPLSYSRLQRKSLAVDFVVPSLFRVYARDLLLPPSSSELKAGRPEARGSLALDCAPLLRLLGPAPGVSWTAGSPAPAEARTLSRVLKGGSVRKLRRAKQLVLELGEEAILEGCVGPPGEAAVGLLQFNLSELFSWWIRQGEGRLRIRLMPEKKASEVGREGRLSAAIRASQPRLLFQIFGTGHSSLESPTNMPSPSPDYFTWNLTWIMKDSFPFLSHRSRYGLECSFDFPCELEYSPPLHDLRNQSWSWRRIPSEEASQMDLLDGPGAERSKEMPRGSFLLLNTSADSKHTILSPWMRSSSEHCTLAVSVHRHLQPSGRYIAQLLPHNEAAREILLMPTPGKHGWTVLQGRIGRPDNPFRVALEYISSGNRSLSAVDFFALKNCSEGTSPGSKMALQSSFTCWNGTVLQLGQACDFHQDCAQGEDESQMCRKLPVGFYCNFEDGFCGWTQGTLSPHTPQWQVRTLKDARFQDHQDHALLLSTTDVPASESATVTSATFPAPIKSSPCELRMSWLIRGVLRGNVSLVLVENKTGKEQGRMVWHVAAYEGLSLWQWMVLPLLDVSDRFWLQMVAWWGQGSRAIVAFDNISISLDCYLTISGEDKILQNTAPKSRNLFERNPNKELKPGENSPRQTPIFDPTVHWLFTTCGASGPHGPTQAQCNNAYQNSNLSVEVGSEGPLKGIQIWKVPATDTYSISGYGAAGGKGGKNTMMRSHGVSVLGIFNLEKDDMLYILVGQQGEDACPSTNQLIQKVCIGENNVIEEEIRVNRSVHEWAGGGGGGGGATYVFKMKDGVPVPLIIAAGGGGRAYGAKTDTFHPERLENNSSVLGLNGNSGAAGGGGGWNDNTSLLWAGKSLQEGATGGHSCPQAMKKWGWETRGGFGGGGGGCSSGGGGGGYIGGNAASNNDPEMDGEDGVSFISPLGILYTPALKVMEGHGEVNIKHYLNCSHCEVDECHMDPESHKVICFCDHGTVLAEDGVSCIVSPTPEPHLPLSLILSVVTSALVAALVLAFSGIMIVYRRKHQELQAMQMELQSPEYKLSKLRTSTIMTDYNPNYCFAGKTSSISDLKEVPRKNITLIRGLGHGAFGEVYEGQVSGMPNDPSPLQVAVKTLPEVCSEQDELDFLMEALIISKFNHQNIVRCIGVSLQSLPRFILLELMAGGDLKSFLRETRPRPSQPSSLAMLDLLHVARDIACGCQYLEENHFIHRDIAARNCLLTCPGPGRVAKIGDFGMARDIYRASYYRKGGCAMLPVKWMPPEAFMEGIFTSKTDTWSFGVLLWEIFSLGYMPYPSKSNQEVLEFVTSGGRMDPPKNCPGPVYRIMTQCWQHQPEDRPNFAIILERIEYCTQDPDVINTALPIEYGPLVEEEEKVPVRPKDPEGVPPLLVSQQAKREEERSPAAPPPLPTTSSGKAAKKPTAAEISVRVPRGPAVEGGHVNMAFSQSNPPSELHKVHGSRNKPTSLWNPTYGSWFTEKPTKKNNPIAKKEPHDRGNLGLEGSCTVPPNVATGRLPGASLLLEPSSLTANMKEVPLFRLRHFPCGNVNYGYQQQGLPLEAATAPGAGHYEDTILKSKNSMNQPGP
Sequence of Cyclin-dependent kinase 4 (Homo sapiens) (P11802 whole entry): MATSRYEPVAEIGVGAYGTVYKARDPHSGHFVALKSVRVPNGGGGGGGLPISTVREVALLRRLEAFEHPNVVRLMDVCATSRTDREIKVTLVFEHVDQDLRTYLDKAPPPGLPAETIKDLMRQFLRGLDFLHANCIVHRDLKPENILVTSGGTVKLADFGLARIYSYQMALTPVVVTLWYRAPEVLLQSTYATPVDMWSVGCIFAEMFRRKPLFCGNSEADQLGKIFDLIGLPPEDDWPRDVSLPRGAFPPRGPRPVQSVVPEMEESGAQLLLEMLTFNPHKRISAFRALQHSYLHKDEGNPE

- inhibition [1]: 54.9%
- Activity [2]: Active
- half-life [3]: > 24 h
- Activity [4]: inactive
- Activity [5]: inactive
SMILES: CC(=O)c1c(C)c2cnc(Nc3ccc(N4CCN(CC(=O)NCCSSCCN(CC(=O)NCCNc5cccc6c5C(=O)N(C5CCC(=O)NC5=O)C6=O)C(=O)CCCCCCC(=O)N5CCC(c6cc(OC(C)C)c(Nc7ncc(Cl)c(Nc8ccccc8S(=O)(=O)C(C)C)n7)cc6C)CC5)CC4)cn3)nc2n(C2CCCC2)c1=O (stereo not drawn)
- Activity (NCI-H3122): Active
- Activity (Mus musculus): Active
- IC50 [6]: 12.7 µM
